Assay results reported in patent publication US6355799B1, “Substituted benzene compounds, process for their preparation, and herbicidal and defoliant compositions containing them” (ISK Americas Incorporated, priority 1997, dated 2002).

What was measured:
Type in all cases: in vivo
[1] = system: upland rice (Oryza sp., var. Tebonnet, RICE); experiment: Pre-emerge test, crop safety; conditions: crop damage, pre-emerge, phytotoxicity rating 0-100 at 14 days after application
How it was run: (§1)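 Fourteen days after spraying, crop and weed injury was graded visually from 0, no effect, to 100, every plant dead. Test substances were dissolved in acetone and applied at 15–1000 g ai/ha with a flat-fan nozzle. Application was either pre-emergence, one day after sowing, or post-emergence at the 2–3 leaf stage.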

[2] = system: field corn (Zea mays L., var. Dekalb 535, CORN); experiment: Pre-emerge test, crop safety; conditions: crop damage, pre-emerge, phytotoxicity rating 0-100 at 14 days after application
How it was run: as §1

[3] = system: redroot pigweed (Amaranthus retroflexus, AMARE); experiment: Post-emerge test, greenhouse herbicide activity screening; conditions: post-emerge, phytotoxicity rating 0-100 at 14 days after application
How it was run: (§2)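 Sandy loam pots; pre-emerge: sown 1 d pre-spray, surface-watered after, then bottom-watered. Post-emerge: sown 8–21 d before, 2–3 leaf stage, + 0.25% v/v NIS, bottom-watered. Acetone, 187 l/ha track spray, 15–1000 g ai/ha. 0–100 injury score, day 14.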

[4] = system: sicklepod (Cassia obtusifolia, CASOB); experiment: as above; conditions: post-emerge, phytotoxicity rating 0-100 at 14 days after application
How it was run: as §2

[5] = system: common ragweed (Ambrosia artemisizfolia L., AMBEL); experiment: as above; conditions: post-emerge, phytotoxicity rating 0-100 at 14 days after application
How it was run: as §2

[6] = system: lambsquarters (Chenopodium album, CHEAL); experiment: as above; conditions: post-emerge, phytotoxicity rating 0-100 at 14 days after application
How it was run: as §2

[7] = system: large crabgrass (Digitaria sanguinalis, DIGSA); experiment: as above; conditions: post-emerge, phytotoxicity rating 0-100 at 14 days after application
How it was run: as §2

[8] = system: ivyleaf morningglory (Ipomoea hederacea, IPOHE); experiment: as above; conditions: post-emerge, phytotoxicity rating 0-100 at 14 days after application
How it was run: as §2

[9] = system: johnsongrass (Sorghum halepense, SORHA); experiment: as above; conditions: post-emerge, phytotoxicity rating 0-100 at 14 days after application
How it was run: as §2

[10] = system: barnyardgrass (Echinochloa crus-galli, ECHCG); experiment: as above; conditions: post-emerge, phytotoxicity rating 0-100 at 14 days after application
How it was run: as §2

[11] = system: green foxtail (Setaria viridis, SETVI); experiment: as above; conditions: post-emerge, phytotoxicity rating 0-100 at 14 days after application
How it was run: as §2

[12] = system: velvetleaf (Abutilon theophrasti, ABUTH); experiment: as above; conditions: post-emerge, phytotoxicity rating 0-100 at 14 days after application
How it was run: as §2

[13] = system: redroot pigweed (Amaranthus retroflexus, AMARE); experiment: Pre-emerge test, greenhouse herbicide activity screening; conditions: pre-emerge, phytotoxicity rating 0-100 at 14 days after application
How it was run: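 Compounds in acetone were track-sprayed at 15-1000 g ai/ha (187 l/ha) on sandy loam pots: pre-emerge one day after seeding, post-emerge at 2-3 leaf stage with 0.25% v/v non-ionic surfactant. Phytotoxicity was rated 14 days later on a 0 (no damage) to 100 (complete death) scale.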

[14] = system: upland rice (Oryza sp., var. Tebonnet, RICE); experiment: Post-emerge test, crop safety; conditions: post-emerge, crop damage rating 0-100 at 14 days after application
How it was run: (§3)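 Compounds in acetone were track-sprayed at 187 l/ha, 15–1000 g ai/ha, onto sandy loam pots. Pre-emerge seeds were sown one day before spraying, with surface watering afterwards. Post-emerge plants were at the 2–3 leaf stage and sprayed with 0.25% v/v non-ionic surfactant. Injury was rated 0–100 at 14 days.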

[15] = system: field corn (Zea mays L., var. Dekalb 535, CORN); experiment: Post-emerge test, crop safety; conditions: post-emerge, crop damage rating 0-100 at 14 days after application
How it was run: as §3

[16] = system: sicklepod (Cassia obtusifolia, CASOB); experiment: Pre-emerge test, greenhouse herbicide activity screening; conditions: pre-emerge, phytotoxicity rating 0-100 at 14 days after application
How it was run: as §3

[17] = system: lambsquarters (Chenopodium album, CHEAL); experiment: as above; conditions: pre-emerge, phytotoxicity rating 0-100 at 14 days after application
How it was run: as §3

[18] = system: large crabgrass (Digitaria sanguinalis, DIGSA); experiment: as above; conditions: pre-emerge, phytotoxicity rating 0-100 at 14 days after application
How it was run: as §3

[19] = system: ivyleaf morningglory (Ipomoea hederacea, IPOHE); experiment: as above; conditions: pre-emerge, phytotoxicity rating 0-100 at 14 days after application
How it was run: as §3

[20] = system: johnsongrass (Sorghum halepense, SORHA); experiment: as above; conditions: pre-emerge, phytotoxicity rating 0-100 at 14 days after application
How it was run: as §3

[21] = system: barnyardgrass (Echinochloa crus-galli, ECHCG); experiment: as above; conditions: pre-emerge, phytotoxicity rating 0-100 at 14 days after application
How it was run: as §3

[22] = system: green foxtail (Setaria viridis, SETVI); experiment: as above; conditions: pre-emerge, phytotoxicity rating 0-100 at 14 days after application
How it was run: as §3

[23] = system: velvetleaf (Abutilon theophrasti, ABUTH); experiment: as above; conditions: pre-emerge, phytotoxicity rating 0-100 at 14 days after application
How it was run: as §3

COc1c(Cl)cc(F)c(-n2ncc(C(F)(F)F)cc2=O)c1NC(=O)c1ccc2ccccc2c1 [Compound 11-6, 2-(4-chloro-6-fluoro-3-methoxy-2-naphthoylamidophenyl)-5-trifluoromethylpyridazin-3-one]
Pre-emerge Herbicidal Activity RICE ([1]; rate 63 g ai/ha): 0 | Pre-emerge Herbicidal Activity RICE ([1]; rate 250 g ai/ha): 50 | Pre-emerge Herbicidal Activity CORN ([2]; rate 63 g ai/ha): 0 | Pre-emerge Herbicidal Activity CORN ([2]; rate 250 g ai/ha): 20 | Post-emerge Herbicidal Activity AMARE ([3]; 63 g ai/ha): 100 | Post-emerge Herbicidal Activity AMARE ([3]; 250 g ai/ha): 100 | Post-emerge Herbicidal Activity CASOB ([4]; 63 g ai/ha): 100 | Post-emerge Herbicidal Activity CASOB ([4]; 250 g ai/ha): 100 | Post-emerge Herbicidal Activity AMBEL ([5]; 63 g ai/ha): 100 | Post-emerge Herbicidal Activity AMBEL ([5]; 250 g ai/ha): 100 | Post-emerge Herbicidal Activity CHEAL ([6]; 63 g ai/ha): 80 | Post-emerge Herbicidal Activity CHEAL ([6]; 250 g ai/ha): 100 | Post-emerge Herbicidal Activity DIGSA ([7]; 63 g ai/ha): 0 | Post-emerge Herbicidal Activity DIGSA ([7]; 250 g ai/ha): 0 | Post-emerge Herbicidal Activity IPOHE ([8]; 63 g ai/ha): 70 | Post-emerge Herbicidal Activity IPOHE ([8]; 250 g ai/ha): 100 | Post-emerge Herbicidal Activity SORHA ([9]; 63 g ai/ha): 0 | Post-emerge Herbicidal Activity SORHA ([9]; 250 g ai/ha): 0 | Post-emerge Herbicidal Activity ECHCG ([10]; 63 g ai/ha): 50 | Post-emerge Herbicidal Activity ECHCG ([10]; 250 g ai/ha): 80 | Post-emerge Herbicidal Activity SETVI ([11]; 63 g ai/ha): 10 | Post-emerge Herbicidal Activity SETVI ([11]; 250 g ai/ha): 50 | Post-emerge Herbicidal Activity ABUTH ([12]; 63 g ai/ha): 100 | Post-emerge Herbicidal Activity ABUTH ([12]; 250 g ai/ha): 100 | Pre-emerge Herbicidal Activity AMARE ([13]; rate 63 g ai/ha): 100 | Pre-emerge Herbicidal Activity AMARE ([13]; rate 250 g ai/ha): 100 | Post-emerge Herbicidal Activity RICE ([14]; 63 g ai/ha): 20 | Post-emerge Herbicidal Activity RICE ([14]; 250 g ai/ha): 60 | Post-emerge Herbicidal Activity CORN ([15]; 63 g ai/ha): 0 | Post-emerge Herbicidal Activity CORN ([15]; 250 g ai/ha): 20 | Pre-emerge Herbicidal Activity CASOB ([16]; rate 63 g ai/ha): 20 | Pre-emerge Herbicidal Activity CASOB ([16]; rate 250 g ai/ha): 99 | Pre-emerge Herbicidal Activity CHEAL ([17]; rate 63 g ai/ha): 100 | Pre-emerge Herbicidal Activity CHEAL ([17]; rate 250 g ai/ha): 100 | Pre-emerge Herbicidal Activity DIGSA ([18]; rate 63 g ai/ha): 100 | Pre-emerge Herbicidal Activity DIGSA ([18]; rate 250 g ai/ha): 100 | Pre-emerge Herbicidal Activity IPOHE ([19]; rate 63 g ai/ha): 0 | Pre-emerge Herbicidal Activity IPOHE ([19]; rate 250 g ai/ha): 80 | Pre-emerge Herbicidal Activity SORHA ([20]; rate 63 g ai/ha): 0 | Pre-emerge Herbicidal Activity SORHA ([20]; rate 250 g ai/ha): 40 | Pre-emerge Herbicidal Activity ECHCG ([21]; rate 63 g ai/ha): 90 | Pre-emerge Herbicidal Activity ECHCG ([21]; rate 250 g ai/ha): 100 | Pre-emerge Herbicidal Activity SETVI ([22]; rate 63 g ai/ha): 100 | Pre-emerge Herbicidal Activity SETVI ([22]; rate 250 g ai/ha): 100 | Pre-emerge Herbicidal Activity ABUTH ([23]; rate 63 g ai/ha): 95 | Pre-emerge Herbicidal Activity ABUTH ([23]; rate 250 g ai/ha): 100
